# Activity calls are given as the source filed them.
# Columns and labels:
# [1] = target: T1, Cytochrome P450 3A4 (Homo sapiens, UniProt P08684); conditions: Potency
# [2] = target: Voltage-gated inwardly rectifying potassium channel KCNH2 (Homo sapiens, UniProt Q12809); test: concentration-dependent hERG rescue from blockers – cell-based, thallium flux, dose response (AID 2121); assay type: ADME
# [3] = HPDE-C7 pancreatic duct cell viability loss – fluorescence, HTS (AID 430); assay type: functional, cell-based; conditions: Homo sapiens
# [4] = viability loss of HPDE-C7K cells – cell-based, fluorescence, HTS, primary screen (AID 431); assay type: functional; conditions: Homo sapiens
# [5] = target: Mitogen-activated protein kinase 10 (Homo sapiens, UniProt P53779); test: Dose response biochemical screening assay for inhibitors of c-Jun N-Terminal Kinase 3 (JNK3). [Related pubchem assays: 746 ]
# [6] = target: FAD-linked sulfhydryl oxidase ALR (Homo sapiens, UniProt P55789); test: ALR-catalysed DTT oxidation blockers – biochemical, H2O2 detection, luminescence, cherry-pick, dose response (AID 493248)
# [7] = target: Heat shock protein HSP 90-alpha (Homo sapiens, UniProt P07900); assay type: functional, organism-based
# [8] = target: T2, Alkaline phosphatase, tissue-nonspecific isozyme (Homo sapiens, UniProt P05186)
# T2 sequence (P05186 whole entry): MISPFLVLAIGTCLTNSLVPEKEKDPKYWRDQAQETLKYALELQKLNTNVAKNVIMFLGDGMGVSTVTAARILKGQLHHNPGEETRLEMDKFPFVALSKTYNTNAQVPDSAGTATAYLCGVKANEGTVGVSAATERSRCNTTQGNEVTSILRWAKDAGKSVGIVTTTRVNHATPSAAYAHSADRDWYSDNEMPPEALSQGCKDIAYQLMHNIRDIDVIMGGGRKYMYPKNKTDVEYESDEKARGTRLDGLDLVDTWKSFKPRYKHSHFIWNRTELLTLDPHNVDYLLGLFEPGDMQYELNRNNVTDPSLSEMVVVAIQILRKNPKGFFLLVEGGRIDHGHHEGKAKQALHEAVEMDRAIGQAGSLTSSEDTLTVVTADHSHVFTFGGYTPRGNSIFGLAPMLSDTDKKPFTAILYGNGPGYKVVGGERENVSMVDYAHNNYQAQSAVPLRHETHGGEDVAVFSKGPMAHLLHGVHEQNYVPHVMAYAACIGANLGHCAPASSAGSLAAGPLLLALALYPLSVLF
# [9] = target: Cytochrome P450 2D6 (Homo sapiens, UniProt P10635);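 further: CYP2D6 member of a cytochrome P450 panel assay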
# [10] = target: T1, Cytochrome P450 3A4
# [11] = M. tuberculosis H37Rv growth inhibitors, H37Rv strain (AID 1626); assay type: functional
# [12] = target: Prothrombin (Homo sapiens, UniProt P00734); test: Thrombin 1536 HTS Dose Response Confirmation. [Related pubchem assays: 1046 (Thrombin 1536 HTS; hits were confirmed in this assay)]; assay type: functional
# [13] = test system: Vero; test: mammalian cell viability reduction – secondary assay, cytotoxicity control for West Nile virus antiviral project, dose response (AID 1650); assay type: functional; conditions: Chlorocebus sabaeus
# [14] = target: T3, Corticotropin-releasing factor receptor 2/Corticotropin-releasing factor-binding protein (Homo sapiens, UniProt P24387+Q13324); test: Dose Response confirmation of uHTS hits for small molecule antagonists of the CRF-binding protein and CRF-R2 receptor complex.; assay type: functional; conditions: read-out: IC50_Mean
# T3 sequence (Q13324 whole entry): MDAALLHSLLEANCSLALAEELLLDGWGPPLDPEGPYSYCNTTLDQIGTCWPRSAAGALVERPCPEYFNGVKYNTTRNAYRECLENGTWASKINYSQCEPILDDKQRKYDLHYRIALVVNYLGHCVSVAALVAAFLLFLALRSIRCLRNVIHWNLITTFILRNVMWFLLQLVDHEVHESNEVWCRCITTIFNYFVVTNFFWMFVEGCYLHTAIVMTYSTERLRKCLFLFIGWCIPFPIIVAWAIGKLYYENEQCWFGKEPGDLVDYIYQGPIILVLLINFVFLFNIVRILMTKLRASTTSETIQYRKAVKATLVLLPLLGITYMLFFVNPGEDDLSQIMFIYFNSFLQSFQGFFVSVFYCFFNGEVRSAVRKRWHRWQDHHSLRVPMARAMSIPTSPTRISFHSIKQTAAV
# T3 sequence (P24387 whole entry): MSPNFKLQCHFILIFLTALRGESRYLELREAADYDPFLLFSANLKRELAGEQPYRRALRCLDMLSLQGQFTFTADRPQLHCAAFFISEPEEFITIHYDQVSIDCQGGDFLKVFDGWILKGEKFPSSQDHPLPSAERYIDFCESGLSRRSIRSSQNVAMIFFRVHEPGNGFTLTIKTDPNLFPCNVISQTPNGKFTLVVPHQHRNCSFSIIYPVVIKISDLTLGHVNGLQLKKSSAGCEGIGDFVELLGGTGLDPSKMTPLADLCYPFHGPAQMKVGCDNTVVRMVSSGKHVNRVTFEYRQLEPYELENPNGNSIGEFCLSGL
# [15] = target: T3, Corticotropin-releasing factor receptor 2/Corticotropin-releasing factor-binding protein; test: activators of CRF receptor 2 with binding protein – uHTS hits, confirmation (AID 602473); assay type: functional; conditions: read-out: EC50_Mean
# [16] = Luminescence-based cell-based high throughput dose response assay to identify activators of the DAF-12 from the parasite S. stercoralis (ssDAF-12).; assay type: functional
# [17] = target: T4, Oxysterols receptor LXR-beta (Homo sapiens, UniProt P55055); test: LXR agonists, Gal4 luciferase reporter, dose response, counter-screen for ssDAF-12 agonist project, cell-based, luminescence, HEK293, S. stercoralis campaign (AID 720737); assay type: functional; conditions: read-out: IC50 (the source's name)
# T4 sequence (P55055 whole entry): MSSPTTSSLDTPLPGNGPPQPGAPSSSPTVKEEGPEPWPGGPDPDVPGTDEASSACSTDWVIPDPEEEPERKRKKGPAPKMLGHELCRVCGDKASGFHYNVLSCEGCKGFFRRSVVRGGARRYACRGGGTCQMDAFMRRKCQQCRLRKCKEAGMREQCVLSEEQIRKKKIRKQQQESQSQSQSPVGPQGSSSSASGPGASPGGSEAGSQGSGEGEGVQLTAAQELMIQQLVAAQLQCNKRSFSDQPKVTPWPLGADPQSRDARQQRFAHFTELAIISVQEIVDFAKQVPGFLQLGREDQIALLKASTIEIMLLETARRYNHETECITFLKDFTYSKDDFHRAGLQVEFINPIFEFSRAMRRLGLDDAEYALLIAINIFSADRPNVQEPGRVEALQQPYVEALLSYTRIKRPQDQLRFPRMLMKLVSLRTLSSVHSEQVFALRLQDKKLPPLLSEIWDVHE
# [18] = test system: HeLa; test: viability loss in HeLa cells – cell-based, 24 h, cherry-picked samples, cytotoxicity control, dose response (AID 504726); assay type: functional; conditions: Homo sapiens;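 further: potency for cytotoxicity as loss of luminescence signal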
# [19] = target: Acyl-homoserine lactone acylase PvdQ (Pseudomonas aeruginosa (strain LESB58), UniProt Q9I194); test: PvdQ acylase enzyme activity blockers – biochemical, fluorescence, plate reader and imaging, cherry-picks, dose response (AID 493231)
# [20] = target: Voltage-gated N-type calcium channel alpha-1B subunit/Amyloid beta A4 precursor protein-binding family A member 1 (Homo sapiens, UniProt Q00975+Q02410); test: disruptors of Mint-PDZ/N-type channel peptide interaction – biochemical, HTRF, set 2, SAR follow-up (AID 434980); assay type: functional
# [21] = target: Kallikrein-7 (Homo sapiens, UniProt P49862); test: Fluorescence Intensity-based biochemical primary high throughput dose response assay to identify activators of kallikrein-7 (K7) zymogen.
# [22] = target: Luciferin 4-monooxygenase (Photinus pyralis, UniProt P08659); test: Counter Screen for Luciferase-based Assay Positives. [Related pubchem assays: 620, 618, 411 ]
# [23] = test system: HT-1080; test: HT1080 cell viability loss – fluorescence readout (AID 620); assay type: functional, cell-based; conditions: Homo sapiens
# [24] = target: T4, Oxysterols receptor LXR-beta; assay type: functional, cell-based
# [25] = cells
# [26] = target: Paired box protein Pax-8 (Homo sapiens, UniProt Q06710); test: PAX8 transcriptional activity inhibition in RMG-I – RMG-I cells, luciferase, cherry-pick, dose response (AID 687027); assay type: functional, cell-based;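 further: luciferase reporter driven by Pax8 target thyroperoxidase promoter measured by SteadyGlo luminescence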
# [27] = A2780 cell killing – plate reader, dry powder samples, cytotoxicity control, dose response (AID 743046); assay type: functional, cell-based
# [28] = OVCAR-3 cell viability loss – plate reader, dry powder samples, PAX8 inhibitor project, dose response (AID 743044); assay type: functional, cell-based
# [29] = OVCAR8 cell viability loss – plate reader, dry powder samples, PAX8 project, dose response (AID 743197); assay type: functional, cell-based; conditions: OVCAR-8
# [30] = Late-stage results from the probe development effort to identify antagonists of arginine vasopressin receptor 1a (AVPR1a): fluorescence-based cell-based dose response AVPR1a inhibition assay.; assay type: functional
# [31] = target: Vasopressin V1b receptor (Homo sapiens, UniProt P47901); test: Late-stage results from the probe development effort to identify antagonists of arginine vasopressin receptor 1a (AVPR1a): fluorescence-based cell-based dose response AVPR1b inhibition counterscreen assay.; assay type: functional
# [32] = target: Vasopressin V2 receptor (Homo sapiens, UniProt P30518); test: Late-stage results from the probe development effort to identify antagonists of arginine vasopressin receptor 1a (AVPR1a): fluorescence-based cell-based dose response AVPR2 inhibition counterscreen assay.; assay type: functional
# [33] = Late-stage results from the probe development effort to identify antagonists of arginine vasopressin receptor 1a (AVPR1a): fluorescence-based cell-based dose response OXTR inhibition counterscreen assay.; assay type: functional
# [34] = viability of PTEN-deleted HCT116 cells – cell-based, HCT116 PTEN knockout, dose response (AID 1047); assay type: functional;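 further: HCT116 colon tumor cells with PTEN knocked out; cells exposed to compound for 60 hours before readout; potency for loss of cell viability measured by luminescence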
# [35] = viability of HCT116 lacking mutant beta-catenin – cell-based, human colon tumor, dose response (AID 1045); assay type: functional;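 further: HCT116 colon tumor cells with beta catenin knocked out; cells exposed to compound for 60 hours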
# [36] = cells; assay type: functional, cell-based
# [37] = cells; assay type: functional, cell-based; remark: listed apart in the source
# [38] = Dd2 parasite growth inhibition in erythrocytes – SYBR Green, dry powder samples, set 9, dose response (AID 1159568); assay type: functional, cell-based
# T1 sequence (P08684 whole entry): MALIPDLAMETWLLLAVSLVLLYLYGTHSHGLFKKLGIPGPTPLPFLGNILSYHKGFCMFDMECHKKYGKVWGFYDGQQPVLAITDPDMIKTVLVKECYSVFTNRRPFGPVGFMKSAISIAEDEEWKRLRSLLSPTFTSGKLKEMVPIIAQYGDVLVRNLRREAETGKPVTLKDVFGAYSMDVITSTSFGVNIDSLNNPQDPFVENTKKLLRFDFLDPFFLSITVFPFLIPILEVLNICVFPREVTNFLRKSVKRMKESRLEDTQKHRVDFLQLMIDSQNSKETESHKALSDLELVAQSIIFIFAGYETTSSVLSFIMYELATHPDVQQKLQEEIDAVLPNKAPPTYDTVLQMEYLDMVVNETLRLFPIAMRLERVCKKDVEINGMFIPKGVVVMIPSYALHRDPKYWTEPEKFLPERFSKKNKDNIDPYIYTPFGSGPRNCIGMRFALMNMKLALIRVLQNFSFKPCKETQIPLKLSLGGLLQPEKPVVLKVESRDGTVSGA
# Kallikrein-7, sequence (P49862 whole entry): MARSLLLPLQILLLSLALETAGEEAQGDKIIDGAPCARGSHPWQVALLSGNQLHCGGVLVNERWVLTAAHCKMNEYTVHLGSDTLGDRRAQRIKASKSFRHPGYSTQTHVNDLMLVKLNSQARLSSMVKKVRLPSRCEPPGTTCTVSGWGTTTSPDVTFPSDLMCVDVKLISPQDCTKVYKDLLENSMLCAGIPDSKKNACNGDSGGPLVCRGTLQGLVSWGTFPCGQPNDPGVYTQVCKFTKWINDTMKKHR
# Paired box protein Pax-8, sequence (Q06710 whole entry): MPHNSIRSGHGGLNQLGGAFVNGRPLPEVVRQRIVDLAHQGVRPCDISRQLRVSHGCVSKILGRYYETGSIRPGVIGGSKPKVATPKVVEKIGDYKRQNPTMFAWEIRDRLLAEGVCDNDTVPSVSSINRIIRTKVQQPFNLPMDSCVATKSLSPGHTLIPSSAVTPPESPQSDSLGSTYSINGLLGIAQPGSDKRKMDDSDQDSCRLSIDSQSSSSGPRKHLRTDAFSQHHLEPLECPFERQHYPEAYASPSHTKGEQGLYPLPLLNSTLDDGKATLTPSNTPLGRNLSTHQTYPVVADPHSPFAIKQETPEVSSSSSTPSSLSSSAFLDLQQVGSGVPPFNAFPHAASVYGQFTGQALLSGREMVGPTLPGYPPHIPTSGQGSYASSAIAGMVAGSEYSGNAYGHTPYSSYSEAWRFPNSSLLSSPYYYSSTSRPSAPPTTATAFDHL
# Vasopressin V1b receptor, sequence (P47901 whole entry): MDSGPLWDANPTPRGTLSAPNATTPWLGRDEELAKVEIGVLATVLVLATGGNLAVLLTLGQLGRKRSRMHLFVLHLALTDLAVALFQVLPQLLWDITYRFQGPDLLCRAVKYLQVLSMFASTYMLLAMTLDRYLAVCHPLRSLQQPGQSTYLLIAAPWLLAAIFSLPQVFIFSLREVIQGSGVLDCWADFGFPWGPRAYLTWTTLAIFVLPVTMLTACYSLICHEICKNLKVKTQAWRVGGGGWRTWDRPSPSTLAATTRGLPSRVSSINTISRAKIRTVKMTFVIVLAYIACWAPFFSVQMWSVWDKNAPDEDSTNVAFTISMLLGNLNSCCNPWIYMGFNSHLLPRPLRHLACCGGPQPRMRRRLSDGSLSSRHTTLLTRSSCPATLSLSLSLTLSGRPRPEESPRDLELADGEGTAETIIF
# Mitogen-activated protein kinase 10, sequence (P53779 whole entry): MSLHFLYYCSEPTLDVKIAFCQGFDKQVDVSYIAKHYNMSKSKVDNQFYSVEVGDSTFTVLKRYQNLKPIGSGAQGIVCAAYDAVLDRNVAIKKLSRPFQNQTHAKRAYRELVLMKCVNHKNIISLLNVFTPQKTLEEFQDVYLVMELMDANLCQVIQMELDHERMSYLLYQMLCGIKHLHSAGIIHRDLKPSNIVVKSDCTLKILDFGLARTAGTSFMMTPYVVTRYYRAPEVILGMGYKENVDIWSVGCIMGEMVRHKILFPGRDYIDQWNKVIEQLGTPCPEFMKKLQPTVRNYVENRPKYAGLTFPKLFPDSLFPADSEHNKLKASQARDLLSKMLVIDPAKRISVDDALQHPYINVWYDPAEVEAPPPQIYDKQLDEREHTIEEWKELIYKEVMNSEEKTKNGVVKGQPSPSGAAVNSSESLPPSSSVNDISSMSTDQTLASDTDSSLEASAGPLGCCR
# Vasopressin V2 receptor, sequence (P30518 whole entry): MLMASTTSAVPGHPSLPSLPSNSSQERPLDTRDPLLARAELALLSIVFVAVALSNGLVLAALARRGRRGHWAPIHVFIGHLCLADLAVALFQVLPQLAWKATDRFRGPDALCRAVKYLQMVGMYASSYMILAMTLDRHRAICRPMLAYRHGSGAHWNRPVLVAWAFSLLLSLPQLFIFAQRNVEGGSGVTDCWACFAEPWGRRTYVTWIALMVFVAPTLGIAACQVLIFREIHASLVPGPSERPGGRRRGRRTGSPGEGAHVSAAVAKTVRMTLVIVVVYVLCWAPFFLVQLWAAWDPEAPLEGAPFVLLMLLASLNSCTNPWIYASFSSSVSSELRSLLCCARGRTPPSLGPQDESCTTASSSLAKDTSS
# Acyl-homoserine lactone acylase PvdQ, sequence (Q9I194 24-193 limits assumed): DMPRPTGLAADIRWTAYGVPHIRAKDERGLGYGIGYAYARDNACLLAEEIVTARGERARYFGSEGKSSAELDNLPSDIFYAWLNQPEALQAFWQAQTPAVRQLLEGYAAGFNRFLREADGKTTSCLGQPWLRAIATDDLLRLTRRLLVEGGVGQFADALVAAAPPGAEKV
# Acyl-homoserine lactone acylase PvdQ, sequence (Q9I194 217-762 limits assumed): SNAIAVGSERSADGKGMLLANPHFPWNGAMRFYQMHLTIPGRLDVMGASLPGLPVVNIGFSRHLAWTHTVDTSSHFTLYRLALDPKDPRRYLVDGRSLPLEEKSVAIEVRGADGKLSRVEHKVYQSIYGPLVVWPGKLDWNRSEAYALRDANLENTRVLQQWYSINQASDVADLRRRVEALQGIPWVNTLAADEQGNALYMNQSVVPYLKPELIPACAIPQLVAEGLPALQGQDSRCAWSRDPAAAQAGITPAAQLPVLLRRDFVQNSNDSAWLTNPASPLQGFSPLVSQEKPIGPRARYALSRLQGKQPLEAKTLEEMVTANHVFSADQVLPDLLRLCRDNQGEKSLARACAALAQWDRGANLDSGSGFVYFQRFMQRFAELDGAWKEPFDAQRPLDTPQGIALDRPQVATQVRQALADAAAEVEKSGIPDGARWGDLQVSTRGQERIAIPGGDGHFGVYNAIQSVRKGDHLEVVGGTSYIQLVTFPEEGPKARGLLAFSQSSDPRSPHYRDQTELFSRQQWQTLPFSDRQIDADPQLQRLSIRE
# Voltage-gated inwardly rectifying potassium channel KCNH2, sequence (Q12809 whole entry): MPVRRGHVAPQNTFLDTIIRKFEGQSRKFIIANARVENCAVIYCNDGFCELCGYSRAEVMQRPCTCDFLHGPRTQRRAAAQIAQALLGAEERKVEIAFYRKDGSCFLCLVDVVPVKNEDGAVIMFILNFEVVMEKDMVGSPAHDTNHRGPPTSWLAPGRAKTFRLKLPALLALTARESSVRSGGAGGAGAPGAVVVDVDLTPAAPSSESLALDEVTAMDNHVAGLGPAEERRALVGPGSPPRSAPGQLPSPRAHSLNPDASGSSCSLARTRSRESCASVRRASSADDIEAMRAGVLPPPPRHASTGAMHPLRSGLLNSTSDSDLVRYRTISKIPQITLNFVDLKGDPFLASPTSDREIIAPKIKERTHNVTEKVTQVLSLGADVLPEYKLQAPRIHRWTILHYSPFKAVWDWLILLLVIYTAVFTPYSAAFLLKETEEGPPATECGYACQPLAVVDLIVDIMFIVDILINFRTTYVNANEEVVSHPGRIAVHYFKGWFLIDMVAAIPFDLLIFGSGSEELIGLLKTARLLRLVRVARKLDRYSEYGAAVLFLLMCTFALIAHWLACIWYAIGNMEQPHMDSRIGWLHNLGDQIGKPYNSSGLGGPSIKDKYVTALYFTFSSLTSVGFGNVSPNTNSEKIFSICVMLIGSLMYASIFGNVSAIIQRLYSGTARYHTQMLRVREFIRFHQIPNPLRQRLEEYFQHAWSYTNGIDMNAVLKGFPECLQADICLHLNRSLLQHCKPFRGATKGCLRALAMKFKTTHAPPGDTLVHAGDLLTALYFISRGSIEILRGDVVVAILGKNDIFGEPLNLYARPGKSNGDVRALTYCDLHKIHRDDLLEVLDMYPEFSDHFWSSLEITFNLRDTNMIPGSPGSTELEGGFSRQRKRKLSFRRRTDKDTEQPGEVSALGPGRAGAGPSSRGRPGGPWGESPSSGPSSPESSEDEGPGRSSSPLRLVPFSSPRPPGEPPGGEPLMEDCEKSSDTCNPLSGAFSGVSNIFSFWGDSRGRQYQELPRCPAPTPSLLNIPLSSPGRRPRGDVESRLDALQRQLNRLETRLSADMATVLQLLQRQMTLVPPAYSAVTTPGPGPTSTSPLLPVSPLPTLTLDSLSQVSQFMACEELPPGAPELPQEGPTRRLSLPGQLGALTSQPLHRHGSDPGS
# Luciferin 4-monooxygenase, sequence (P08659 whole entry): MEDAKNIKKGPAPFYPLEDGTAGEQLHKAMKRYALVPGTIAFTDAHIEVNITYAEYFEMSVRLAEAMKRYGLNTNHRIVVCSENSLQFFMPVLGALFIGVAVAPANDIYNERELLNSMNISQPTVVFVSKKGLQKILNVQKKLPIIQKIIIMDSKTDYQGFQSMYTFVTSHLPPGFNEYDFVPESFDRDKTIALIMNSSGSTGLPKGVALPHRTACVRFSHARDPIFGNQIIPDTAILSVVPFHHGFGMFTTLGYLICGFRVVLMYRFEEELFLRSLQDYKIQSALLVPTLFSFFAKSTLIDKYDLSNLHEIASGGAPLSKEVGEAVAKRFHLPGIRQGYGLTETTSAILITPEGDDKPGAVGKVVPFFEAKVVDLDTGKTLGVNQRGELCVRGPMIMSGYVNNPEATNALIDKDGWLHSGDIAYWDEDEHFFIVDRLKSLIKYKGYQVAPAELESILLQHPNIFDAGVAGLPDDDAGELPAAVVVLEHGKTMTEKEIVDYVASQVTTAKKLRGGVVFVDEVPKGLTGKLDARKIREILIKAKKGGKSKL
structure (smiles),measurement,setting,value
COC(=O)c1ccc(C23CC4(C2)[C@H](CN(C)[C@@H]4c2ccccc2)C3c2ccc(Cl)nc2)cc1 (some centres not stated),AC50,[1],20 µM (inconclusive)
O=C(COc1ccccc1Cl)NC(=S)Nc1ccccc1N1CCCC1,EC50,[2],1.56 µM (active)
Clc1ccc2[nH]c3c(c2c1)CCc1c[nH]nc1-3,EC50,[3],15 µM (active)
same,EC50,[4],18.1 µM (active)
same,IC50,[5],2.16 µM (active)
same,AC50,[6],0.129 µM (active)
same,AC50,[7],7.8 µM (active)
CC(=O)Nc1cccc(-c2nc3ccccc3c(=O)o2)c1,IC50,[5],41.9 µM (not active)
Cc1cc([N+](=O)[O-])nn1CC(=O)NN=C(S)Nc1ccc(F)cc1,EC50,[8],55.5 µM (not active)
same,AC50,[9],0.00562 µM (inconclusive)
same,AC50,[10],22.4 µM (inconclusive)
COc1ccc2ncc(OC(C)=O)cc2c1,IC50,[11],> 100 µM (active)
same,IC50,[12],3.24 µM (active)
COC(=O)C1C(c2ccccc2)C(C(=O)OCc2ccco2)C1c1ccccc1 (configuration not stated),CC50,[13],30.1 µM (active)
same,IC50,[14],> 47.1 µM (inactive)
same,EC50,[15],> 53 µM (inactive)
COc1ccc(Nc2nc(N)nc(CSC(=S)N3CCN(C)CC3)n2)cc1,IC50,[16],> 67.6 µM (inactive)
same,EC50,[17],> 67.6 µM (inactive)
CN(C)c1ccc(/C=C/C(=O)c2ccc(O)cc2)cc1[N+](=O)[O-],AC50,[18],51.7 µM (active)
COC(=O)c1ccc(OC(=O)c2ccco2)cc1,AC50,[19],1.99 µM (active)
CC(=O)O[C@](C)(CCC=C(C)C)C1CC=C(C)CC1 (some centres not stated),AC50,[1],31.6 µM (inconclusive)
COc1ccccc1N1CCN(C(=O)c2cc(-c3ccco3)nc3ccccc23)CC1,IC50,[20],> 56.8 µM (inactive)
O=CNC1(c2ccccc2)CCCCC1,AC50,[19],1.96 µM (active)
Cc1cccc(C(=O)/N=c2/c(C#N)cc3c(=O)n4cccc(C)c4nc3n2Cc2ccco2)c1,EC50,[21],65.6 µM (inactive)
Cc1ccc(-c2nc3cc(C)ccc3o2)cc1,EC50,[22],1.59 µM (active)
same,EC50,[23],> 50 µM (not active)
same,EC50,[24],> 67.5 µM (inactive)
same,EC50,[25],> 67.5 µM (inactive)
C[C@@H]1CCCCO[C@@H](CN(C)Cc2ccc(C(F)(F)F)cc2)[C@H](C)CN([C@H](C)CO)C(=O)c2cc(NC(=O)Nc3ccccc3)ccc2O1,AC50,[26],4.86 µM (active)
same,AC50,[27],57 µM (active)
same,AC50,[28],28.1 µM (active)
same,AC50,[29],36 µM (active)
C[C@@H]1CN([C@H](C)CO)C(=O)c2cc(NC(=O)Cc3ccccc3)ccc2O[C@@H](C)CCCCO[C@@H]1CN(C)Cc1ccc(C(F)(F)F)cc1,AC50,[26],7.22 µM (active)
same,AC50,[28],17.5 µM (active)
same,AC50,[29],43.2 µM (active)
N#Cc1cccnc1N1CCN(C(=O)N(CC2CC2)c2ccc(Cl)cc2)CC1,IC50,[30],0.0806 µM (active)
same,IC50,[31],> 50 µM (inactive)
same,IC50,[32],> 50 µM (inactive)
same,IC50,[33],> 50 µM (inactive)
Cc1cccnc1N1CCC(C(=O)N(CC2CC2)c2ccc(Cl)cc2)CC1,IC50,[30],0.0075 µM (active)
same,IC50,[31],12.6 µM (inactive)
same,IC50,[32],15.7 µM (inactive)
same,IC50,[33],2.6 µM (active)
Cc1ccc(/C=N/Nc2cccc3cccnc23)c(O)c1,EC50,[8],> 100 µM (not active)
C=CCn1/c(=N/C(=O)c2ccc(S(=O)(=O)N3CCc4ccccc4C3)cc2)sc2cc(S(N)(=O)=O)ccc21,EC50,[34],5.77 µM (active)
same,EC50,[35],4.56 µM (active)
same,EC50,[21],> 69.5 µM (inactive)
COc1ccc(/N=C2/C(=O)N3CCCc4cccc2c43)cc1,EC50,[36],> 350 µM (not active)
same,IC50,[11],> 100 µM (active)
same,EC50,[37],> 350 µM (not active)
COc1ccccc1-c1ccc2c(c1)[C@@H]1[C@@H](CCN1C(=O)C1CCC1)[C@H](CO)N2,AC50,[38],2.92 µM (active)
CCCNC(=O)N1[C@H](C#N)[C@H](c2ccccc2C2=CCCCC2)[C@@H]1CO,AC50,[38],7.06 µM (active)
